Results as given in paper PMC5077133, “Towards Development of Small Molecule Lipid II Inhibitors as Novel Antibiotics” (PLoS ONE, 2016).

Columns and labels:
[1] = Liver microsome stability; assay type: in vitro ADME; details: human liver microsomes, pH 7.4, 1h 37 °C
Protocol: The in vitro microsome stability assay was performed using human liver microsomes and a Biomek FXP liquid handling workstation to deliver reagents to a 96 deep well plate on a shaking peltier with temperature controls. Human liver microsomes were purchased from Corning®. The test compound was incubated in an aqueous reaction mixture (200 ul total volume) consisting of human liver microsomes (150 mixed donor pool) and NADPH Regenerating System Solutions A and B (Corning®) in the presence of 100 mM potassium phosphate buffer (pH 7.4). The NADPH solution A comprises nicotinamide adenine dinucleotide phosphate (NADP+) and glucose 6-phosphate and solution B contains glucose-6-phosphate dehydrogenase. Solutions A and B were combined prior to adding to the reaction plate to generate a supply of NADPH. The NADPH was added last to simultaneously initiate the reactions. The final concentration of the test compound was 10 uM and the microsomal protein concentration was 0.5 mg/ml. After incubation at 37°C, the reaction was terminated at 0, 5, 10, 20, 30, 40, 50 and 60 minutes, respectively, by the addition of 600 uL of acetonitrile. Three replicates were run for each time point. The quenched reaction plate was centrifuged at 4500 rpm for 10 minutes. The supernatant was diluted 1:2 in 30% Methanol in water for LC/MS/MS analyses to monitor substrate depletion. Water was substituted for NADPH for the zero time-point samples. A control plate, without NADPH cofactor, was completed on the same day, using the same conditions.
The half-life (t1/2) was obtained using the equation below: t1/2=−0.693/slope
Where slope is the slope of the line formed by ln(% remaining test compound) vs. time. The in vitro intrinsic clearance (CLint) value was calculated using equation: CLint=(0.693/t1/2)(incubation volume(ul)/total microsomal protein(mg))

[2] = system: Enterococcus faecalis EF1509; experiment: Murine peritoneal sepsis model; assay type: in vivo, C57BL/6J mice; details: 6jc48-1 100 mg/kg, ampicillin 300 mg/kg
Excerpt: Care of the mice met or exceeded the standards set forth by the National Institute of Health Guide for the care and use of laboratory animals and the AVMA panel on Euthanasia. All procedures in this study have been approved by the Institutional Animal Care and Use Committee (IACUC) at the University of Maryland Baltimore School of Medicine (Protocol number 02122005). Adult C57BL/6J mice (~18 grams, 8–10 weeks old) were used for all experiments. Mice were obtained from the Jackson Laboratory (Bar Harbor, Maine, USA) and housed in the IHV SPC animal core facility. Mice were fed standard chow (Harlan Laboratories) and water ad libitum. […] Infected animals (n = 5) were subsequently treated by intraperitoneal injection 30 min post-infection with 100 mg/kg of compound in 300 μL sterile saline solution, 5% Tween 80, 10% DMSO (V/V), ampicillin (300mg/kg), or vehicle (sterile saline solution, 5% Tween 80, 10% DMSO (V/V)) as positive and negative controls, respectively. Animals were closely observed during a period of 24 h and mice that show signs of severe sepsis were humanely euthanized. Mice were anesthetized by intraperitoneal injection of ketamine (80-100mg/kg) and xylazine (10–15 mg/kg). Once sedated, blood was collected by cardiac puncture. Immediately after blood collection the mice were euthanized by cervical dislocation. Spleens were harvested aseptically, weighed and homogenized in 500 μl of sterile saline solution using an IKA T10 basic disperser (IKA, Wilmington NC). Spleen homogenates were serially diluted and plated onto BHI agar plates. Bacterial counts were determined following 24 h incubation at 37°C and expressed as CFU per gram for spleen.
We established a murine model for sepsis to evaluate the efficacy of 6jc48-1 as an antibiotic agent in vivo. […] Based on the data obtained in the pharmacokinetic analysis, mice (n = 5) were inoculated intraperitoneally with E. faecalis EF1509 (~5 x 10^8 CFU/ animal) and treated after 30 min with compound 6jc48-1 (100 mg/kg IP), ampicillin (300 mg/kg IP) or vehicle. Animals were monitored for survival and after 24 h spleen samples were collected and analyzed for the presence of bacteria. Bacterial counts were determined by plating serial dilutions on BHI agar plates and compared to control treatment with ampicillin as measures of efficacy (Fig 5).

[3] = Cytotoxicity against mammalian cells (MTS assay); assay type: cell-based; details: human, HeLa cells (ATCC CCL-2.2)
Method in brief: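 HeLa cells exposed 72 h in RPMI1640 to compounds at 64 to 0.125 μg/ml, in triplicate. Viability measured as mitochondrial activity by MTS, and CC50 taken against a standard curve of serially diluted untreated cells.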

E. faecium EF1509 (VRE) = experiment: Antibacterial activity (MIC, broth dilution); assay type: cell-based; details: CLSI, in µg/mL
Protocol: (§1) Determination of the Minimal Inhibitory Concentrations (MIC) by dilution was carried out by broth dilution according to CLSI standards.

E. faecium F118 (VRE) = experiment: Antibacterial activity (MIC, broth dilution); assay type: cell-based; details: CLSI, in µg/mL
Protocol: as §1

P. aeruginosa ATCC 27853 = experiment: Antibacterial activity (MIC, broth dilution); assay type: cell-based; details: CLSI
Protocol: as §1

[4] = Plasma stability (50% serum, LC/MS/MS); assay type: in vitro ADME
Protocol: Samples were taken after 2 min, 5min, 15min, 30min, 1h, 2h and 19h. Stability of compound was quantified by LC/MS/MS. Experiments were carried out by Pharmaron, Inc., (Beijing, China).

[5] = Solubility in water (laser nephelometry); assay type: physicochemical; details: n=3
Protocol: Solubility in water was determined using a NEPHELOstar^plus laser nephelometer (BMG Labtech, Cary, NC) at a wavelength of 635 nm and bottom read optics using a 96-well plate format. A solution of 6jc48-1 was prepared at a concentration of 2.5 mg/ml in DMSO. The DMSO solution (10 μl) was added to wells containing water (290 μl) for a final concentration of 125 μg/ml. The plate was incubated at room temperature for two hours prior to reading in the nephalometer. All samples were run in triplicate. Control samples (DMSO with no analyte) were prepared and run in parallel.

Compound: CN(C)c1ccc(/C=C/c2cc(-c3ccc(Br)cc3)cc(-c3ccc(Br)cc3)[o+]2)cc1 [6jc48-1]
- half-life at 10 uM ([1]; read-out: Liver microsome stability Half-life): > 1 h
- microsomal CLint at 10 uM ([1]; read-out: Liver microsome stability clearance): < 23 µL/min/mg
- Bacterial counts in spleen ([2]; IP treatment 30 min post-infection, spleen collected after 24 h): significant bacterial clearance
- Survival of infected animals ([2]; n = 5, IP treatment 30 min post-infection, length of the experiment (24 h)): Four out of five
- CC50 at 72 h [3]: > 100 µg/mL
- Antibacterial activity (MIC) E. faecium EF1509 (VRE) (E. faecium EF1509 (VRE)): 2.828
- Antibacterial activity (MIC) E. faecium F118 (VRE) (E. faecium F118 (VRE)): 5.657
- Antibacterial activity (MIC) P. aeruginosa ATCC 27853 (P. aeruginosa ATCC 27853): ≥ 64 µg/mL
- Stability in serum ([4]; after 2 hours): fully stable after 2 hours in serum
- Compound remaining in serum ([4]; after 19h, 10 μg/ml): 46%
- solubility at 2 h [5]: > 50 µg/mL
